We go through 13 compounds from US9175003B2, “Substituted azoanthracene derivatives and intermediates for preparation thereof” (TransTech Pharma, LLC, priority 2009, dated 2015).

For this experiment, the target named is human GLP-1 receptor (Homo sapiens (Human), UniProt P43220). As to conditions: read-out: Mean EC50; cAMP, HTRF detection, 30 min at 37° C., HEK-293 cells expressing cloned human GLP-1 receptor. A general note: TR-FRET usually uses a lanthanide donor and a delayed reading to cut background.
Chain of human GLP-1 receptor (P43220 24-463): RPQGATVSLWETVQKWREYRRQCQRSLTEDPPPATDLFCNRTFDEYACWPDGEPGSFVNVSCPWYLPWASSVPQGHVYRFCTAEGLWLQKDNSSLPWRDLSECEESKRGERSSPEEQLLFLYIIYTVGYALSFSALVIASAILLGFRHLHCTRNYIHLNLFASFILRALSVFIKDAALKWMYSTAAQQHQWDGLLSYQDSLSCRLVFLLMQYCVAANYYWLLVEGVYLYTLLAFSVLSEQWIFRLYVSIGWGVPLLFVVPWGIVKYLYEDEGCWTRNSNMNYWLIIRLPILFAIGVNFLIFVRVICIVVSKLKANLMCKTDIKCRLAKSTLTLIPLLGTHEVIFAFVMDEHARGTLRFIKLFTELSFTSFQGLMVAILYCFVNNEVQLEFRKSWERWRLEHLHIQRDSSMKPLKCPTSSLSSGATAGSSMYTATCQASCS
Consider `Cc1nccc(-c2ccc(C[C@H](NC(=O)[C@@H]3Cc4cc5c(cc4CN3C(=O)[C@@H]3CCN(C(=O)OC(C)(C)C)C3)O[C@@H](c3ccc(OCc4ccc(Cl)c(Cl)c4)cc3)CO5)C(=O)O)cc2)c1C` [Example 281, (R)-3-{(3S,8S)-8-{(S)-1-Carboxy-2-[4-(2,3-dimethyl-pyridin-4-yl)-phenyl]-ethylcarbamoyl}-3-[4-(3,4-dichloro-benzyloxy)-phenyl]-2,3,8,9-tetrahydro-6H-[1,4]dioxino[2,3-g]isoquinoline-7-carbonyl}-pyrrolidine-1-carboxylic acid tert-butyl ester], for which the EC50 – broadly, the concentration needed to bring the measured effect to its halfway point – stood at 5 nM.
In the case of `Cc1nccc(-c2ccc(C[C@H](NC(=O)[C@@H]3Cc4cc5c(cc4CN3C(=O)C3Cc4ccccc4C3)O[C@@H](c3ccc(OCc4ccc(Cl)c(Cl)c4)cc3)CO5)C(=O)O)cc2)c1C` [Example 282, (S)-2-{[(3S,8S)-3-[4-(3,4-Dichloro-benzyloxy)-phenyl]-7-(indane-2-carbonyl)-2,3,6,7,8,9-hexahydro-[1,4]dioxino[2,3-g]isoquinoline-8-carbonyl]-amino}-3-[4-(2,3-dimethyl-pyridin-4-yl)-phenyl]-propionic acid], the EC50 was found to be 198 nM.
Consider `Cc1nccc(-c2ccc(C[C@H](NC(=O)[C@@H]3Cc4cc5c(cc4CN3C(=O)OC(C)C)O[C@@H](c3ccc(OCc4ccc(Cl)c(Cl)c4)cc3)CO5)C(=O)O)cc2)c1C` [Example 293, (3S,8S)-8-{(S)-1-Carboxy-2-[4-(2,3-dimethyl-pyridin-4-yl)-phenyl]-ethylcarbamoyl}-3-[4-(3,4-dichloro-benzyloxy)-phenyl]-2,3,8,9-tetrahydro-6H-[1,4]dioxino[2,3-g]isoquinoline-7-carboxylic acid isopropyl ester], for which the EC50 amounted to 261 nM.
Turning to `Cc1nccc(-c2ccc(C[C@H](NC(=O)[C@@H]3Cc4cc5c(cc4CN3C(=O)OCC(C)C)O[C@@H](c3ccc(OCc4ccc(Cl)c(Cl)c4)cc3)CO5)C(=O)O)cc2)c1C` [Example 295, (3S,8S)-8-{(S)-1-Carboxy-2-[4-(2,3-dimethyl-pyridin-4-yl)-phenyl]-ethylcarbamoyl}-3-[4-(3,4-dichloro-benzyloxy)-phenyl]-2,3,8,9-tetrahydro-6H-[1,4]dioxino[2,3-g]isoquinoline-7-carboxylic acid isobutyl ester], the EC50 was found to be 137 nM.
For `CCCCOC(=O)N1Cc2cc3c(cc2C[C@H]1C(=O)N[C@@H](Cc1ccc(Oc2ccnc(C)c2C)cc1)C(=O)O)OC[C@H](c1ccc(OCc2ccc(Cl)c(Cl)c2)cc1)O3` [Example 299, (3S,8S)-8-{(S)-1-Carboxy-2-[4-(2,3-dimethyl-pyridin-4-yloxy)-phenyl]-ethylcarbamoyl}-3-[4-(3,4-dichloro-benzyloxy)-phenyl]-2,3,8,9-tetrahydro-6H-[1,4]dioxino[2,3-g]isoquinoline-7-carboxylic acid butyl ester], the EC50 came to 263 nM.
Then `Cc1nccc(Oc2ccc(C[C@H](NC(=O)[C@@H]3Cc4cc5c(cc4CN3C(=O)OCc3ccccc3)O[C@@H](c3ccc(OCc4ccc(Cl)c(Cl)c4)cc3)CO5)C(=O)O)cc2)c1C` [Example 302, (3S,8S)-8-{(S)-1-Carboxy-2-[4-(2,3-dimethyl-pyridin-4-yloxy)-phenyl]-ethylcarbamoyl}-3-[4-(3,4-dichloro-benzyloxy)-phenyl]-2,3,8,9-tetrahydro-6H-[1,4]dioxino[2,3-g]isoquinoline-7-carboxylic acid benzyl ester], with 182 nM.
For `Cc1nccc(-c2ccc(C[C@H](NC(=O)[C@@H]3Cc4cc5c(cc4CN3C(=O)c3ccccc3)O[C@@H](c3ccc(OCCC(C)(C)C)cc3)CO5)C(=O)O)cc2)c1C` [Example 303, (S)-2-({(3S,8S)-7-Benzoyl-3-[4-(3,3-dimethyl-butoxy)-phenyl]-2,3,6,7,8,9-hexahydro-[1,4]dioxino[2,3-g]isoquinoline-8-carbonyl}-amino)-3-[4-(2,3-dimethyl-pyridin-4-yl)-phenyl]-propionic acid], the EC50 came to 141 nM.
Take `Cc1nccc(-c2ccc(C[C@H](NC(=O)[C@@H]3Cc4cc5c(cc4CN3C(=O)c3ccccc3)O[C@@H](c3ccc(OCC4CCCC4)cc3)CO5)C(=O)O)cc2)c1C` [Example 305, (S)-2-{[(3S,8S)-7-Benzoyl-3-(4-cyclopentylmethoxy-phenyl)-2,3,6,7,8,9-hexahydro-[1,4]dioxino[2,3-g]isoquinoline-8-carbonyl]-amino}-3-[4-(2,3-dimethyl-pyridin-4-yl)-phenyl]-propionic acid]: the EC50 came to 200 nM.
For `Cc1nccc(-c2ccc(C[C@H](NC(=O)[C@@H]3Cc4cc5c(cc4CN3C(=O)c3ccccc3)O[C@@H](c3ccc(O[C@H]4CC[C@H](C)CC4)cc3)CO5)C(=O)O)cc2)c1C` [Example 306, (S)-2-({(3S,8S)-7-Benzoyl-3-[4-(trans-4-methyl-cyclohexyloxy)-phenyl]-2,3,6,7,8,9-hexahydro-[1,4]dioxino[2,3-g]isoquinoline-8-carbonyl}-amino)-3-[4-(2,3-dimethyl-pyridin-4-yl)-phenyl]-propionic acid] the value was 103 nM; for `Cc1nccc(-c2ccc(C[C@H](NC(=O)[C@@H]3Cc4cc5c(cc4CN3C(=O)N3CCOCC3)O[C@@H](c3ccc(OCc4ccc(Cl)c(Cl)c4)cc3)CO5)C(=O)O)cc2)c1C` [Example 311, (S)-2-{[(3S,8S)-3-[4-(3,4-Dichloro-benzyloxy)-phenyl]-7-(morpholine-4-carbonyl)-2,3,6,7,8,9-hexahydro-[1,4]dioxino[2,3-g]isoquinoline-8-carbonyl]-amino}-3-[4-(2,3-dimethyl-pyridin-4-yl)-phenyl]-propionic acid], 74 nM.
Regarding `Cc1nccc(-c2ccc(C[C@H](NC(=O)[C@@H]3Cc4cc5c(cc4CN3C(=O)N3CCCCC3)O[C@@H](c3ccc(OCc4ccc(Cl)c(Cl)c4)cc3)CO5)C(=O)O)cc2)c1C` [Example 312, (S)-2-{[(3S,8S)-3-[4-(3,4-Dichloro-benzyloxy)-phenyl]-7-(piperidine-1-carbonyl)-2,3,6,7,8,9-hexahydro-[1,4]dioxino[2,3-g]isoquinoline-8-carbonyl]-amino}-3-[4-(2,3-dimethyl-pyridin-4-yl)-phenyl]-propionic acid], the EC50 turned out to be 32 nM.
For `Cc1nccc(-c2ccc(C[C@H](NC(=O)[C@@H]3Cc4cc5c(cc4CN3C(=O)N3CCCC3)O[C@@H](c3ccc(OCc4ccc(Cl)c(Cl)c4)cc3)CO5)C(=O)O)cc2)c1C` [Example 313, (S)-2-{[(3S,8S)-3-[4-(3,4-Dichloro-benzyloxy)-phenyl]-7-(pyrrolidine-1-carbonyl)-2,3,6,7,8,9-hexahydro-[1,4]dioxino[2,3-g]isoquinoline-8-carbonyl]-amino}-3-[4-(2,3-dimethyl-pyridin-4-yl)-phenyl]-propionic acid], the EC50 was 73 nM.
Take `CCC(C)(C)NC(=O)N1Cc2cc3c(cc2C[C@H]1C(=O)N[C@@H](Cc1ccc(-c2ccnc(C)c2C)cc1)C(=O)O)OC[C@H](c1ccc(OCc2ccc(Cl)c(Cl)c2)cc1)O3` [Example 319, (S)-2-{[(3S,8S)-3-[4-(3,4-Dichloro-benzyloxy)-phenyl]-7-(1,1-dimethyl-propylcarbamoyl)-2,3,6,7,8,9-hexahydro-[1,4]dioxino[2,3-g]isoquinoline-8-carbonyl]-amino}-3-[4-(2,3-dimethyl-pyridin-4-yl)-phenyl]-propionic acid]: the EC50 was 183 nM.
